Laboratory results reported in ChEMBL document CHEMBL1142208, “Protection of mice from lethal Escherichia coli infection by chimeric human bactericidal/permeability-increasing protein and immunoglobulin G1 Fc gene delivery” (2007).

Tests used:
Mus musculus [1] = assay: Mortality rate of BALB/c mouse infected with Escherichia coli O111:B4 at 25 ug, im within 48 hrs; format: functional
Mus musculus [2] = assay: Survival rate of BALB/c mouse infected with Escherichia coli O111:B4 at 25 ug, im within 48 hrs; format: functional

CO/N=C(\C(=O)N[C@@H]1C(=O)N2C(C(=O)O)=C(COC(N)=O)CS[C@H]12)c1ccco1 [CEFUROXIME] showed a Survival (Mus musculus [1]) of 91.4% and a Survival (Mus musculus [2]) of 5%.
